Source: patent US20160280651A1, “COMPOUNDS THAT INDUCE ABA RESPONSES” (THE REGENTS OF THE UNIVERSITY OF CALIFORNIA, priority 2013, published 2016)
Entries after “also recorded” stand apart in the source; their conditions may differ.

Legend:
ZmRab17 and ZmLEA = test: Quantitative RT-PCR of ABA-responsive genes in maize; type: in vivo
Text: (§1) FIG. 13A-FIG. 13E. LC66C6 modulates ABA responses in diverse species. Germination inhibition (A) and transpirational water loss in detached leaves 2-hours after detachment (B) in response to compounds shown. The expression of ABA-responsive marker genes in Soybean (C), Barley (D) and Maize (E) after application of chemicals. D, P, L and A indicate DMSO, pyrabactin, LC66C6 and (+)-ABA, respectively.
Total RNA was isolated using Plant RNA purification reagent (Invitrogen, USA) according to the manufacturer's instructions. cDNA was synthesized from 1 μg of total RNA using the QantiTec reverse transcription kit (Qiagen, USA). Real-time PCR using Maxima® SYBR Green/Fluorescein qPCR Master Mix (Fermentas) was performed with the iQ5 real-time PCR detection system (Bio-Rad, Hercules, Calif.). The relative amounts of target mRNAs were determined using the relative standard curve method and were normalized by relative amount of internal control mRNA. Biological triplicate experiments were performed.

[1] = test system: MAPKKK18 promoter::GUS reporter; test: MAPKKK18 promoter::GUS ABA-responsive reporter gene assay; type: in vivo, Arabidopsis; conditions: guard cells, vascular tissues of leaves and roots, radicle tips of imbibed seeds
Method: Existing ABA-responsive promoter-GUS fusions are, in our experience, not ideal due to either high background levels or relatively low induction levels in response to ABA. […] We therefore characterized the effects of agonists on MAPKKK18 promoter::GUS reporter transgenic plants. GUS staining was performed in a reaction buffer of the following composition: 50 mM sodium phosphate buffer pH 7.0, 0.05% Tween-20, 2.5 mM potassium ferrocyanide, 2.5 mM potassium ferricyanide, 1 mM X-gluc. The reaction buffer was vacuum infiltrated into test samples for 10 min two times and then incubated at 37° C. for 5 h. The reaction was stopped by washing the samples with 70% ethanol, and chlorophyll pigments bleached by incubation at 65° C.

[2] = test system: detached leaves of crop species; test: Water loss analyses in diverse species; type: in vivo, soybean, barley, maize and other species; conditions: over a period of 2 hours
Method: as §1
For water loss analyses using soybean barley and maize, 100 μM chemical solution containing 0.05% Tween-20 was sprayed on to the aerial parts of the plants. The soybean, barley and maize plants used were approximately 4-, 2- and 2-weeks old respectively. Compounds were applied 16 hours before water loss assays were conduction. To measure water loss entire shoots were detached and their fresh weight monitored.

soybean plants = test: Soybean drought stress assay; type: in vivo; conditions: 50 μM, aerosol every 3 days
Method: FIG. 8A-FIG. 8B. Quinabactin confers drought stress tolerance to wild-type plants. (A) Effect of quinabactin on Arabidopsis drought tolerance. Two-week-old plants were subjected to drought stress by withholding water and were photographed after 12 days. During the drought period, plants were treated every 3 days with 25 μM compound. Plants were re-hydrated after 2 weeks drought treatment; the number of surviving plants (out of total number tested) for each treatment is shown next to each image. (B) Effects of quinabactin on soybean. Two-week-old plants were subjected to drought stress by withholding water and photographed after 8 days drought treatment. […]
Physiological assays were performed on Arabidopsis plants grown at 22±2° C. and relative humidity (RH) 45±10% under a 16/8-h light/dark cycle. […] 12 4-week old plants were sprayed per compound or control analyzed. After overnight pre-treatment with compounds, the aerial portions were detached from roots, and their fresh weight measured at 20 min intervals over a 2 hour time period. […] The leaf impressions were analyzed by light microscopy and stomatal apertures were determined from the pore widths using ImageJ 1.43v software (National Institutes of Health, USA). […] Pots were covered in Parafilm to so that the water loss measured was transpiration mediated. […]

Arabidopsis seeds = test: Arabidopsis germination inhibition, wild type and mutants, Example 2; type: in vivo
Method: FIG. 5A-FIG. 5D. Novel ABA agonists inhibit germination of Arabidopsis seeds more strongly than pyrabactin. (A) and (B) Comparison of seed germination inhibition by ABA agonists. (C) and (D) the effects of ABA and LC66C6 (also called quinabactin) on Arabidopsis ABA signaling- and biosynthesis-deficient mutants on germination (C) and seedling establishment (D). Seeds were sown on ½×MS agar plate containing chemicals, and were stored at 4° C. for 4 days, then transferred at 22±2° C. Photographs (A and C) and germination (B) or green cotyledon (D) scores were assessed after a 4-day incubation under continuous illumination.
As a third screening approach, the Life Chemicals library was also screened for Arabidopsis germination inhibitors in solidified agar medium containing 0.5×MS salts, 0.5% sucrose and 25 μM test compound. Hits from the germination assay were subsequently tested in yeast two hybrid assays. Hit compounds were restocked from their original vendors and used in secondary screens and compound characterization. […]
For Arabidopsis germination and hypocotyl growth inhibition analysis, seeds after-ripened about 4 weeks were surface-sterilized with a solution containing 5% NaClO and 0.05% Tween-20 for 10 minutes, and rinsed with water four times. […] Germination was determined after a 4-day incubation, whereas hypocotyl growth was photographed after 6-day incubation.

## CCCN1C(=O)CCc2cc(NS(=O)(=O)Cc3ccc(C)cc3)ccc21 [LC66C6]
ZmRab17 and ZmLEA
  Expression of ABA-responsive genes ZmRab17 and ZmLEA: weakly induces
[1]
  Tissue pattern of reporter gene expression: induces expression of reporter genes in the same tissues as (+)-ABA
[2]
  Transpirational water loss in detached leaves of diverse species: reduces transpirational water loss
Soybean plants
  Drought stress tolerance: confers drought stress tolerance similar to that conferred by treatment with (+)-ABA
Arabidopsis seeds
  Inhibition of germination of wild-type seeds: nearly as effective, on a per mole basis, at inhibiting germination as (+)-ABA; also recorded: one of the most effective agonists, after (+)-ABA, at inhibiting germination of wild-type seeds
